From the CheMixHub viscosity set
Several values for one entry are separate records, joined by “and”; a condition that tells them apart may be missing. Equal entries are not always repeated.

What was measured:
[1] = xn = mol fraction of the nth substance listed

Cc1cccc([N+](=O)[O-])c1
Settings	viscosity [mPa·s]
308.15 K, 101.33 kPa	1.692

CCn1cc[n+](C)c1.N#C[S-]
viscosity
Settings	293.15 K	298.15 K	303.15 K	308.15 K	313.15 K	318.15 K	323.15 K
100 kPa	–	23.06 mPa·s	19.68 mPa·s	16.97 mPa·s	14.54 mPa·s (2×) and 16.97 mPa·s	12.98 mPa·s (2×) and 14.54 mPa·s	11.49 mPa·s
101 kPa	26.31 mPa·s	–	19.03 mPa·s	–	14.3 mPa·s	–	11.1 mPa·s

COC(=O)c1ccccc1O
Settings	viscosity [mPa·s]
303.15 K, 101 kPa	2.44

CCOC(=O)c1ccccc1 + Cc1ccccc1Cl
viscosity [mPa·s], [1], 101 kPa
Settings	303.15 K	313.15 K
x1 = 0.0262	0.899	0.753
x1 = 0.0785	0.926	0.772
x1 = 0.1304	0.952	0.793
x1 = 0.2081	0.996	0.826
x1 = 0.2594	1.022	0.846
x1 = 0.3343	1.067	0.881
x1 = 0.3851	1.099	0.906
x1 = 0.4613	1.149	0.945
x1 = 0.5356	1.208	0.99
x1 = 0.6108	1.274	1.041
x1 = 0.709	1.375	1.12
x1 = 0.8085	1.497	1.215
x1 = 0.9045	1.635	1.323

CCCCCl + c1ccccc1
viscosity [mPa·s], [1], 101 kPa
Settings	298.15 K	308.15 K	318.15 K	323.15 K
x1 = 0.098	0.557	0.492	0.437	0.417
x1 = 0.153	0.542	0.481	0.428	0.404
x1 = 0.8	0.454	–	–	0.358

CC1CCCCC1 + CCCCCCO
[1], 303.15 K, 101.33 kPa
Settings	viscosity [mPa·s]
x1 = 0.1015	3.051
x1 = 0.2596	2.193
x1 = 0.4197	1.536
x1 = 0.582	1.11
x1 = 0.7447	0.852
x1 = 0.8989	0.693
x2 = 0.1112	0.7521
x2 = 0.1986	0.8469
x2 = 0.3135	1.009
x2 = 0.4018	1.148
x2 = 0.4981	1.351
x2 = 0.5978	1.595
x2 = 0.7018	1.908
x2 = 0.8123	2.408
x2 = 0.8923	2.874

OC(c1ccccc1)(c1ccccc1)c1ccccc1 + CCCCCOC(C)=O
Settings	viscosity [mPa·s]
[1], 298.15 K, 101 kPa, x2 = 0.5	1.9

CCOC(=O)[C@@H](O)[C@H](O)C(=O)OCC + CCCCO
viscosity [mPa·s], [1], 101 kPa
Settings	x1 = 0.0999	x1 = 0.1999	x1 = 0.3	x1 = 0.4001	x1 = 0.4999	x1 = 0.5999	x1 = 0.7001	x1 = 0.8001	x1 = 0.8999
293.15 K	3.887	5.56	8.24	12.44	18.99	29.36	42.81	68.14	118.3
298.15 K	3.353	4.704	6.807	9.946	14.79	22.09	31.37	47.6	78.41
303.15 K	2.902	3.987	5.63	8.08	11.64	16.9	23.32	34.35	54.15
308.15 K	2.527	3.408	4.729	6.627	9.328	13.22	17.74	25.53	38.75
313.15 K	2.217	2.928	3.975	5.454	7.552	10.48	13.83	19.41	28.56
318.15 K	1.953	2.557	3.433	4.631	6.283	8.549	11.11	15.2	21.73
323.15 K	1.746	2.26	2.993	3.98	5.303	7.092	9.107	12.19	16.99

Cc1ccccc1[N+](=O)[O-] + CO
[1], 298.15 K, 101 kPa
Settings	viscosity [mPa·s]
x1 = 0.0021	0.5422
x1 = 0.0086	0.55
x1 = 0.0163	0.5579
x1 = 0.0287	0.5756
x1 = 0.0599	0.621
x1 = 0.0842	0.6536
x1 = 0.148	0.7466
x1 = 0.1606	0.7653
x1 = 0.2493	0.894
x1 = 0.2659	0.919
x1 = 0.3726	1.075
x1 = 0.4073	1.119
x1 = 0.4479	1.172
x1 = 0.5681	1.334
x1 = 0.6575	1.457
x1 = 0.7936	1.656
x1 = 0.8543	1.76
x1 = 0.9606	1.982

CCOC(=O)c1ccccc1 + CCCCCCCCCC
[1], 101 kPa
Settings	viscosity [mPa·s]
298.15 K, x2 = 0.0396	1.837
298.15 K, x2 = 0.1121	1.655
298.15 K, x2 = 0.151	1.566
298.15 K, x2 = 0.2285	1.42
298.15 K, x2 = 0.2637	1.355
298.15 K, x2 = 0.3109	1.289
298.15 K, x2 = 0.4026	1.176
298.15 K, x2 = 0.4449	1.136
298.15 K, x2 = 0.4949	1.088
298.15 K, x2 = 0.5326	1.056
298.15 K, x2 = 0.5928	1.011
298.15 K, x2 = 0.6401	0.982
298.15 K, x2 = 0.6988	0.947
298.15 K, x2 = 0.812	0.894
298.15 K, x2 = 0.8703	0.875
298.15 K, x2 = 0.9276	0.86
308.15 K, x2 = 0.0574	1.521
308.15 K, x2 = 0.0864	1.466
308.15 K, x2 = 0.1337	1.383
308.15 K, x2 = 0.1677	1.329
308.15 K, x2 = 0.1997	1.279
308.15 K, x2 = 0.2471	1.215
308.15 K, x2 = 0.2846	1.165
308.15 K, x2 = 0.3332	1.109
308.15 K, x2 = 0.3766	1.065
308.15 K, x2 = 0.4181	1.024
308.15 K, x2 = 0.4647	0.985
308.15 K, x2 = 0.5144	0.947
308.15 K, x2 = 0.5655	0.913
308.15 K, x2 = 0.6123	0.885
308.15 K, x2 = 0.6663	0.854
308.15 K, x2 = 0.7228	0.828
308.15 K, x2 = 0.7857	0.803
308.15 K, x2 = 0.8405	0.784
308.15 K, x2 = 0.9073	0.764
318.15 K, x2 = 0.0323	1.298
318.15 K, x2 = 0.07	1.235
318.15 K, x2 = 0.1012	1.188
318.15 K, x2 = 0.1446	1.128
318.15 K, x2 = 0.1842	1.078
318.15 K, x2 = 0.2269	1.027
318.15 K, x2 = 0.2679	0.984
318.15 K, x2 = 0.3143	0.939
318.15 K, x2 = 0.3561	0.903
318.15 K, x2 = 0.4045	0.866
318.15 K, x2 = 0.4499	0.835
318.15 K, x2 = 0.5021	0.803
318.15 K, x2 = 0.5496	0.777
318.15 K, x2 = 0.6035	0.752
318.15 K, x2 = 0.6545	0.73
318.15 K, x2 = 0.7126	0.708
318.15 K, x2 = 0.7674	0.69
318.15 K, x2 = 0.8289	0.674
318.15 K, x2 = 0.8862	0.661
